Reference: patent US9446019B2, “Sparstolonin B based pharmaceutical agent for neuroblastoma treatment” (University of South Carolina, priority 2013, dated 2016)

Experiments:
[1] = system: caspase-3 in neuroblastoma cells; test: Cleaved caspase-3 by immunofluorescence and Western blotting; type: cell-based, human
Protocol: For immunofluorescence staining, cells grown in Lab-TekII chamber slides (Fisher Scientific, Pittsburgh, Pa.) were treated with SsnB in complete culture medium. After treatments, cells were washed with 1×PBS, fixed with 4% paraformaldehyde/PBS for 20 min, and permeabilized with 0.2% Triton X-100/PBS for 10 min at room temperature. Cells were washed with 1×PBS for 3 times and blocked with 5% immunoglobulin (IgG) free-bovine serum albumin (BSA; Jackson ImmunoResearch Laboratories, West Grove, Pa.) in 1×PBS for overnight at 4° C. Cells were incubated with antibody raised against active form of caspase-3 (Cell Signaling Technology, Danvers, Mass.) diluted in 2.5% BSA/PBS for overnight at 4° C. Primary antibodies were detected with secondary antibodies conjugated with fluorescein isothiocyanate (FITC; Santa Cruz Biotechnology, Dallas, Tex.) for 2 h at room temperature. After washing with 1×PBS, cells were mounted with antifade Vectashield mounting media (Vector Laboratories, Burlingame, Calif.), and signals were visualized under Nikon-E600 fluorescence microscope. Nuclei were counterstained with 4′,6-diamidino-2-phenylindole (DAPI; Sigma).
After treatment with SsnB, cells were collected, washed with 1×PBS, and lysed with 1× cell lysis buffer (Cell Signaling Technology, Danvers, Mass.) containing phenylmethylsulfonyl fluoride (PMSF) and protease inhibitors (aprotinin and leupeptin) for 30 min on ice, and centrifuged at 12000×rpm for 10 min at 4° C. Supernatant (total cell protein) was collected and stored at −80° C. Protein concentration was determined by bicinchoninic acid method using BCA protein assay kit (Pierce/ThermoScientific, Waltham, Mass.). Equal amount of proteins were diluted with 5× Laemmli samples loading buffer and boiled for five minutes. The proteins were subjected to sodium dodecyl sulfate (SDS)-polyacrylamide gel electrophoresis and analyzed by Western blots. Briefly, after electrophoresis, proteins were transferred on polyvinylidene difluoride (PVDF) membrane at 100 volt for 3 h in cold room. Membrane was blocked with 5% non-fat dry milk/TBST (20 mM Tris-Cl, pH 7.4; 150 mM NaCl with 0.1% Tween-20) for 4 h at room temperature followed by incubation in primary antibodies diluted in 2.5% non-fat dry milk/TBST for overnight at 4° C. After washing with TBST, membrane was incubated with secondary antibodies (horseradish peroxidase-conjugated goat anti-rabbit or goat anti-mouse IgG; Santa Cruz Biotechnology, Dallas, Tex.) diluted in 2.5% non-fat dry milk/TBST for 3 h at room temperature. Signals were detected by chemiluminiscence detection kit (Pierce/Thermo Fisher Scientific, Rockford, Ill.). Primary antibodies used were cleaved caspase-3 and β-actin (Cell Signaling Technology), N-myc and p53 (Santa Cruz Biotechnology).
At cellular level, mitochondria- or receptor (Fas/FasL)-mediated pathways activate caspase signaling cascade which in turn induces DNA damage and initiates programmed cell death (apoptosis). To determine whether SsnB-induced cell death is mediated by caspase activation, Western blotting as well as immunofluorescence assay were performed to detect the active form of caspase-3 in neuroblastoma cells treated with SsnB for 2 days (SH-SY5Y and IMR-32 cells), 3 days (NGP cells) or 4 days (SKNF-1 and SK-N-BE(2) cells). The number of cleaved caspase-3 positive cells were quantitated by ImageJ programme and plotted. […]

[2] = system: human neuroblastoma cell lines (SH-SY5Y, SKNF-1, NGP, IMR-32 and SK-N-BE(2) cells); test: MTT cell viability assay; type: cell-based
From the text: Human neuroblastoma cell lines (SH-SY5Y, IMR-32, SK-N-BE(2) and SKNF-1 cells) were obtained from The American Type Culture Collection (ATCC; Manassas, Va.), and NGP cells were kind gift from Garrett M. Brodeur (The Children's Hospital of Philadelphia, Philadelphia, Pa.). All cell lines were maintained in complete Dulbecco's Modified Eagle's Medium (DMEM) supplemented with 10% fetal bovine serum (FBS; Atlanta Biologicals, Lawrenceville, Ga.) and 1× antibiotic-antimycotic solution (containing 100 U/ml penicillin, 100 μg/ml streptomycin and 0.25 μg/ml amphotericin B), and grown at 37° C. in a humidified incubator with 5% CO2. Stock solution of SsnB was prepared in dimethyl sulfoxide (DMSO). Cells treated with different concentrations of SsnB in DMEM with 10% FBS were grown for subsequent days. Cells treated with equal volume of DMSO were used as control.
The viability of SsnB-treated cells was determined by MTT assay following manufacturer's instructions (Roche diagnostics corporation, Indianapolis, Ind.). Briefly, cells (1×10^4 cells/well) grown in 96-well cell culture plate were incubated with or without SsnB in 100 μl of complete culture medium with 10% FBS. After treatments, cells were incubated with 10 μl of MTT reagent for 4 h and then incubated overnight in solubilization buffer (100 μl) at 37° C. Absorbance of the formazan product was read at 575 nm in spectramax spectrophotometer (Molecular Devices, Sunnyvale, Calif.). A reference wavelength of 690 nm was used to detect background. The measured absorption directly correlated with the number of viable cells in culture. The experiments were performed in triplicate and repeated at least three times.
MTT assay was carried out to examine the effects of SsnB on viability of all the above listed neuroblastoma cells. After 2 days (SH-SY5Y and IMR-32), 3 days (NGP cells) or 4 days (SKNF-1 and SK-N-BE(2) cells) treatment with SsnB (1, 5, 10 and 20 μM), MTT cell viability assays were performed.

[3] = system: intracellular GSH in neuroblastoma cells; test: Cellular glutathione level, luminescence GSH-Glo assay; type: cell-based, human
Protocol: Cells treated with SsnB or DMSO were washed and re-suspended in PBS and the intracellular GSH level was measured by luminescence based GSH-Glo glutathione assay kit (Promega, Madison, Wis.) following manufacturer's protocol. The luminescence was monitored in a luminometer (Promega Biosystems, Sunnyvale, Calif.).
At the cellular level, reduced glutathione (GSH) protects cells from oxidative damage resulted from increased superoxides, peroxides and free radicals. Since SsnB induces oxidative stress, SsnB affect of intracellular levels of GSH in neuroblastoma cells was examined. After treatment with SsnB for 2 days (SH-SY5Y and IMR-32), 3 days (NGP cells) or 4 days (SKNF-1 and SK-N-BE(2) cells), the cellular GSH level was measured by luminescence based glutathione assay kit.

[4] = Homo sapiens, MTT, 2 days (SH-SY5Y, IMR-32), 3 days (NGP), 4 days (SKNF-1, SK-N-BE(2)), range over the cell lines

O=c1occ2c3c(ccc(O)c13)Oc1ccc(O)cc1-2 [SsnB, 8,5′-dihydroxy-4-phenyl-5,2′-oxidoisocoumarin]
cleaved caspase-3 level, Western blot ([1]; SsnB 1 μM, nonsignificant vs control): almost undetectable levels
cleaved caspase-3 protein bands (17 and 19 kDa), Western blot ([1]; SsnB 10 μM): present
cleaved caspase-3 positive cells (immunofluorescence) ([1]; SsnB 10 μM vs DMSO or SsnB 1 μM): significantly increased
exposure time at which caspase-3 cleavage is seen ([1]; SsnB 10 μM, SH-SY5Y cells, time points 6, 12, 24, 48 h): ≤ 6 h
IC20 [2, 4]: 6 to 8 µM
IC50 [2, 4]: 10 to 12 µM
sensitivity towards SsnB treatment ([2]; NGP cell): moderately sensitive
sensitivity towards SsnB treatment ([2]; SH-SY5Y and IMR-32 cells): most sensitive
sensitivity towards SsnB treatment ([2]; SKNF-1 and SK-N-BE(2) cell lines): least sensitive
cell survival vs DMSO ([2]; SsnB 1 μM or 5 μM, p>0.05): No significant difference in cell survival
neuroblastoma cell death ([2]; SsnB 10 μM alone, MTT, range over cell lines (FIG. 5A)): 40-60%
cell viability vs DMSO ([2]; SsnB at and above 10 μM, p<0.05): significantly reduced the viability
cellular GSH level ([3]; SsnB 1 μM): slightly higher or equal to control levels
cellular GSH level ([3]; SsnB 10 μM, 2, 3 or 4 days depending on line, p<0.05): ~40 % of control
